For one data set, the system named is MOG-induced EAE mice. Put plainly: Combination efficacy experiment in the MOG-induced EAE model (therapeutic setting). The data set is classed as in vivo, mouse (C57BL/6). The method, then:
The combination efficacy experiment is performed in the same mouse EAE model as described for the pilot experiments.
Groups of 10 mice are dosed orally starting just before the onset of disease (day 7). It consists of four treatment groups: • 1. Vehicle (0.5% Methylcellulose/0.5% Tween® 80) b.i.d., from day 7 • 2. Fingolimod (0.03 mg/kg) q.d.+Vehicle q.d., from day 7 • 3.
Clinical scores are assessed on a daily basis and disease development is compared between vehicle-treated mice and mice receiving the different treatments. The experiment is terminated at day 16 or day 17. Hematology parameters, including lymphocyte count, are measured at the termination of the experiment. […] CXCL12 plasma concentrations are determined using a commercial quantikine ELISA mouse CXCL12/SDF1c kit from R&D systems, according to manufacturer's instructions.

Data set [1] can be described thus: First-in-human single-dose study in healthy male subjects (NCT03869320). The data set is classed as in vivo. The conditions noted are these: male, human, plasma. The method, then:
[…] […] In the 30 mg dose level group the effect of food is additionally investigated by administering the same treatment to the same subjects after a standardized high-fat breakfast.

Structures are written as SMILES.

One may read the bioavailability as dose-corrected exposure relative to a reference, in per cent. The term Tmax denotes the time from dosing to the highest level. Consider `O=C(N[C@H]1CCN(CC2CC2)C[C@@H]1C(=O)NC1(c2ncccn2)CC1)c1cc(-c2ccc(F)cc2F)on1` [COMPOUND, (3S,4S)-1-Cyclopropylmethyl-4-{[5-(2,4-difluoro-phenyl)-isoxazole-3-carbonyl]-amino}-piperidine-3-carboxylic acid (1-pyrimidin-2-yl-cyclopropyl)-amide], for which the CXCL12 plasma levels entry in the data set with MOG-induced EAE mice (COMPOUND 100 mg/kg b.i.d. from day 7, at termination) was “increase”. Further, the “efficacy on the clinical scores of the disease” value in the data set with MOG-induced EAE mice (from day 7 (just before onset), COMPOUND 100 mg/kg b.i.d., fingolimod 0.03 mg/kg q.d., combination effect from day 14 onwards) is “moderate”. Further, the bioavailability in data set [1] (iv, i.v. microtracer, 200 mg dose level group, read-out: absolute bioavailability) was ~50%. For the same compound, the time to peak (Tmax) in data set [1] (single oral doses >=10 mg, fasted) was 1.3 to 3 h.

For the origin of these results see patent US20250228850A1, “COMBINATION OF A CXCR7 ANTAGONIST WITH AN S1P1 RECEPTOR MODULATOR” (Idorsia Pharmaceuticals Ltd., priority 2019, published 2025).
